Experimental data as given in patent EP2071024A1, “Peptides of human prostatic acid phosphatase enhancing viral infectivity” (Pharis Biotec GmbH, priority 2007, dated 2009).
Ends that are not written are not given here.

Test system: peripheral blood mononuclear cells (PBMC)
Experiment: MTT cytotoxicity assay
Format: cell-based
Conditions: stimulated PBMC, incubated for 3 days, high concentrations, listed as monomeric PAP85-120
Description: To determine possible cytotoxic effects of PAP85-120 fibrils, serial dilutions of fibrils were added to stimulated peripheral blood mononuclear cells (PBMC) and incubated for 3 days (see example 8). Thereafter 10 µl of a 5 mg/ml MTT (Sigma; # M2128) solution was added and cells were incubated for 4 h at 37°C. In living cells mitochondrial dehydrogenases […] the yellow MTT salt to blue formazan crystals (Schiff et al.; 1985). After dissolving the crystals in 1:1 Ethanol/DMSO, samples containing living cells appear blue whereas samples from dead cells are clear. Optical density (OD) was measured at 560/650 nm using a photometer (Molecular Devices).
Fig. 5: PAP85 is non cytotoxic. Peripheral blood mononuclear cells (PBMC) were stimulated with phytohemagglutinine (2 µg/ml) and Interleukin 2 (10 µg/ml) for three days. Thereafter cells were sown out in 96 well dishes containing the indicated concentrations of freshly dissolved monomeric PAP85 or fibrillar PAP85 and incubated for 3 days. Cytotoxicity was determined by detecting dehydrogenase activity in living cells using the MTT assay. Values represent average values +/- SD derived from triplicates.

## IRKRYRKFLNESYKHEQVYIRSTDVDRTLMSAMTNL [freshly dissolved PAP85-120]
  cell viability / cytotoxic effects: do not exert cytotoxic effects
